Assay type in all cases: functional
Assay [1] has as its target Integrin alpha-V/beta-3 (Homo sapiens, UniProt P05106+P06756). Kind of assay: Antagonistic activity against vitronectin receptor.
Assay [2] concerns the target Integrin alpha-IIb/beta-3 (Homo sapiens, UniProt P05106+P08514). Kind of assay: Antagonistic activity against fibrinogen receptor.
Assay [3] is described as follows: Antagonistic activity against Vitronectin receptor protein ( alpha v beta 3 ) by ELISA assay. On the technique in general: ELISA stands for enzyme-linked immunosorbent assay.

As usually defined, the IC50 is the concentration that inhibits the measured activity by half. A low value points to inhibition by little substance.

Integrin alpha-V/beta-3, sequence (P05106 27-788 limits assumed): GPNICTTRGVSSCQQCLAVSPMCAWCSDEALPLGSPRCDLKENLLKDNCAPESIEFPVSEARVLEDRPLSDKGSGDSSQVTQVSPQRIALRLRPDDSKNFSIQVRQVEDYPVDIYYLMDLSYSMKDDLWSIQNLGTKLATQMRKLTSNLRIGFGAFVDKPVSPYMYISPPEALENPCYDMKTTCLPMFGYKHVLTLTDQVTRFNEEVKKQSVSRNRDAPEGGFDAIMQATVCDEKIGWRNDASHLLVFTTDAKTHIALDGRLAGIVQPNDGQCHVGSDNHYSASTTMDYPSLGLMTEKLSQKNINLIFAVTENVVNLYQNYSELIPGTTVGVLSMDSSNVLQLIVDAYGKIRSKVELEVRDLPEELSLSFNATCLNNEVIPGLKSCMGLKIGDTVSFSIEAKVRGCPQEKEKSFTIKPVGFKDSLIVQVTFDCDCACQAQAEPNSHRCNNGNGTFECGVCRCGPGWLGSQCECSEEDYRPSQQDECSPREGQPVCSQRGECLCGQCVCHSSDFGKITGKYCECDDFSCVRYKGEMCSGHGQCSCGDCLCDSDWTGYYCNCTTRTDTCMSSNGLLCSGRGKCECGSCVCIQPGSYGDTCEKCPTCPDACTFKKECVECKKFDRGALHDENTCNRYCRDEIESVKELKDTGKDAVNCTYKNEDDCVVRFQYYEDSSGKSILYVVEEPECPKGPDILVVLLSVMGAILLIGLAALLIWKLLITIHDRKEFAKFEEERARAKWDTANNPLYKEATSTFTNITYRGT
Integrin alpha-V/beta-3, sequence (P06756 31-889 limits assumed): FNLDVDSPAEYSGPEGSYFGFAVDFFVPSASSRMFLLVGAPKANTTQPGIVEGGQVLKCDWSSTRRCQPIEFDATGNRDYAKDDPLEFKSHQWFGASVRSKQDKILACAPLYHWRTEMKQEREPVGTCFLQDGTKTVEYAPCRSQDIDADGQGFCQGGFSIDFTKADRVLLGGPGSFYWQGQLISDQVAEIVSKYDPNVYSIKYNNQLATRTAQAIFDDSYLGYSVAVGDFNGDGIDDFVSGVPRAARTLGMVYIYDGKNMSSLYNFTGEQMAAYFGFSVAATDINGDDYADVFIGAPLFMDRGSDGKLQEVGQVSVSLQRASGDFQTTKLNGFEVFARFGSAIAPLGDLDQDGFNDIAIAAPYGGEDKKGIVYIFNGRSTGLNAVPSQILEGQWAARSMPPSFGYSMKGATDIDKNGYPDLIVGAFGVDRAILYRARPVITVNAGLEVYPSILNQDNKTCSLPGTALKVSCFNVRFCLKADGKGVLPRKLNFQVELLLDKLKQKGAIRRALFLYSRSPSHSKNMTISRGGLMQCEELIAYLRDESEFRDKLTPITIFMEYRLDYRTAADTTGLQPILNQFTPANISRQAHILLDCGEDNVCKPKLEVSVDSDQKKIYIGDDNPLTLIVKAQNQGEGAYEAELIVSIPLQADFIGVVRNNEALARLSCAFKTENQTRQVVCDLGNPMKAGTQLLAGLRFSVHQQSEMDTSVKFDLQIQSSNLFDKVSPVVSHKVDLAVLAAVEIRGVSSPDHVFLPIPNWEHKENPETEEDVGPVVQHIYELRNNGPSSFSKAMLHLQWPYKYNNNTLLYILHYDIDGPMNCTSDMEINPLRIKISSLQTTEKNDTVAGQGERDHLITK
Integrin alpha-V/beta-3, sequence (P06756 891-1048 limits assumed): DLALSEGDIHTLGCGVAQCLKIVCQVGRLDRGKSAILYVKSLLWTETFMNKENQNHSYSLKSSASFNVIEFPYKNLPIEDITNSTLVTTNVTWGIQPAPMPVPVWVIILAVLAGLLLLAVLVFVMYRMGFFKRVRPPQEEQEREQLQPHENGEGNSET
Integrin alpha-IIb/beta-3, sequence (P05106 27-788 limits assumed): as the sequence (P05106 27-788 limits assumed) above
Integrin alpha-IIb/beta-3, sequence (P08514 32-887 limits assumed): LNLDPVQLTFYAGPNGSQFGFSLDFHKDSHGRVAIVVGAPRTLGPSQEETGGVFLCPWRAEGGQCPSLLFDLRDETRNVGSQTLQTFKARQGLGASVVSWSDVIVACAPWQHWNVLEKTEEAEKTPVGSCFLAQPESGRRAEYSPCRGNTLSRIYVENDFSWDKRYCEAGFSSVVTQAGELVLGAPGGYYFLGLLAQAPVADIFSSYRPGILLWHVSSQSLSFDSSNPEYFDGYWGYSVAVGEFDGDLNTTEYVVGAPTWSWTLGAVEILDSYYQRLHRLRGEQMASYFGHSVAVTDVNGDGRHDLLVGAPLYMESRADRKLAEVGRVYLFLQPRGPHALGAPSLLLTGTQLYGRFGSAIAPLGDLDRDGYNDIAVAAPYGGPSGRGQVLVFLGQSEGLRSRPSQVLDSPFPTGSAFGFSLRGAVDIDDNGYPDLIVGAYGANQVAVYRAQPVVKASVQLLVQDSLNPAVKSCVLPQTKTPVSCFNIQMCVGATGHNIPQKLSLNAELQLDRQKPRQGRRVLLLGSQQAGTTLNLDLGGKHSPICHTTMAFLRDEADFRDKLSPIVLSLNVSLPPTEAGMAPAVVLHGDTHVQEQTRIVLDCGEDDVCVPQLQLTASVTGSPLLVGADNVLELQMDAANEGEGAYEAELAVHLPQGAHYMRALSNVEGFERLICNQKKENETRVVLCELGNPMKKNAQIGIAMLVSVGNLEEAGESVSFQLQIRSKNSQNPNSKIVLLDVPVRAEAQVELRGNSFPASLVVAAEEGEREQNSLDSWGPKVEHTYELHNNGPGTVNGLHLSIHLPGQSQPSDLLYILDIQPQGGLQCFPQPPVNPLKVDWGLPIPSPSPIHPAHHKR
Integrin alpha-IIb/beta-3, sequence (P08514 891-1039 limits assumed): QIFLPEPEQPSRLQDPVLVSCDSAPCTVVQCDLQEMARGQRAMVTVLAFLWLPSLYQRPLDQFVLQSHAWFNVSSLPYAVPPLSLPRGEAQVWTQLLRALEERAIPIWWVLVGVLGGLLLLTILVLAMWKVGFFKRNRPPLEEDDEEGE

In the case of `N=C(N)NCCCCC1CC(C(=O)NC[C@H](NS(=O)(=O)c2ccc(F)cc2)C(=O)O)=NO1` (stereo partly specified), the IC50 in assay [1] stood at 15 nM; in assay [2], 1300 nM.

On to `Cn1ccc(S(=O)(=O)N[C@@H](CNC(=O)C2=NOC(CCCCN=C(N)N)C2)C(=O)O)n1` (stereo partly specified), for which the IC50 in assay [1] came to 96 nM; in assay [2], 3600 nM.

As to `N=C(N)NCCCCC1CC(C(=O)NC[C@H](NS(=O)(=O)c2cc(Cl)sc2Cl)C(=O)O)=NO1` (stereo partly specified), the IC50 was found to be 24 nM in assay [1] and 1900 nM in assay [2].

With `N=C(N)NCCC1=NOC(C(=O)NC[C@H](NC(=O)OCc2ccccc2)C(=O)O)C1` (stereo partly specified), the IC50 in assay [1] is 2600 nM; in assay [2] it was above 100000 nM.

For the compound `N=C(N)NCCCCCC1=NOC(C(=O)NC[C@H](NC(=O)OCc2ccccc2)C(=O)O)C1` (stereo partly specified), the half-maximal inhibitory concentration (IC50) in assay [1] was 710 nM; in assay [2] it was 13000 nM.

For `N=C(N)NCCCCC1CC(C(=O)NC[C@H](NS(=O)(=O)c2cccs2)C(=O)O)=NO1` (stereo partly specified), the IC50 worked out at 23 nM in assay [1] and 360 nM in assay [2].

As for `N=C(N)NCCCCCC1=NOC(CC(=O)NC[C@H](NC(=O)OCc2ccccc2)C(=O)O)C1` (stereo partly specified), the IC50 in assay [1] stood at 470 nM; in assay [2], 1500 nM.

For `N=C(N)NCCCCC1CC(C(=O)NC[C@H](NC(=O)OCc2ccccc2)C(=O)O)=NO1` (stereo partly specified), the IC50 in assay [1] amounted to 23 nM.

On to `N=C(N)NCCCCC1=NOC(CC(=O)NC[C@H](NC(=O)OCc2ccccc2)C(=O)O)C1` (stereo partly specified), for which the results for the IC50 in assay [1] and in assay [2] were 180 nM and 800 nM, respectively.

Turning to `N=C(N)NCC1CC(CCC(=O)NC[C@H](NC(=O)OCc2ccccc2)C(=O)O)=NO1` (stereo partly specified), the 50% inhibitory concentration (IC50) in assay [1] is 310 nM; in assay [2], above 100000 nM.

On to `N=C(N)NCCCCC1=NOC(CCC(=O)NC[C@H](NC(=O)OCc2ccccc2)C(=O)O)C1` (stereo partly specified), for which the results for the IC50 in assay [1] and in assay [2] were 300 nM and 3600 nM, respectively.

Take `Cc1noc(C)c1S(=O)(=O)N[C@@H](CNC(=O)C1=NOC(CCCCN=C(N)N)C1)C(=O)O` (stereo partly specified): the IC50 in assay [1] came to 14 nM; in assay [2], 850 nM.

With `N=C(N)NCCC1=NOC(CC(=O)NC[C@H](NC(=O)OCc2ccccc2)C(=O)O)C1` (stereo partly specified), the results for the IC50 in assay [1] and in assay [2] were 900 nM and 12000 nM, respectively.

In the case of `N=C(N)NCCCC1CC(C(=O)NC[C@H](NC(=O)OCc2ccccc2)C(=O)O)=NO1` (stereo partly specified), the IC50 was found to be 140 nM in assay [1] and 53000 nM in assay [2].

In the case of `N=C(N)NCCCCC1CC(C(=O)NC[C@H](NS(=O)(=O)c2ccc([N+](=O)[O-])cc2)C(=O)O)=NO1` (stereo partly specified), the values for the IC50 in assay [1] and in assay [2] were 140 nM and 43000 nM, respectively.

As for `N=C(N)NCCCCC1CC(C(=O)NC[C@H](NS(=O)(=O)c2ccccc2)C(=O)O)=NO1` (stereo partly specified), the IC50 in assay [1] was 11 nM; in assay [2], 780 nM.

On to `N=C(N)NCCCCC1=NOC(C(=O)NC[C@H](NC(=O)OCc2ccccc2)C(=O)O)C1` (stereo partly specified), for which the IC50 in assay [3] came out at 81 nM; in assay [2], 55000 nM.

For `N=C(N)NCCCC1=NOC(CCC(=O)NC[C@H](NC(=O)OCc2ccccc2)C(=O)O)C1` (stereo partly specified), in assay [1], it took 100 nM to reach half-maximal inhibition (IC50).

Take `COc1ccc(S(=O)(=O)N[C@@H](CNC(=O)C2=NOC(CCCCN=C(N)N)C2)C(=O)O)cc1` (stereo partly specified): the values for the IC50 in assay [1] and in assay [2] were 12 nM and 460 nM, respectively.

Regarding `Cc1cc(C)c(S(=O)(=O)N[C@@H](CNC(=O)C2=NOC(CCCCN=C(N)N)C2)C(=O)O)c(C)c1` (stereo partly specified), the IC50 in assay [1] is 0.7 nM; in assay [2], 340 nM.

In the case of `N=C(N)NCCCCC1CC(C(=O)NC[C@H](NS(=O)(=O)c2ccccc2Br)C(=O)O)=NO1` (stereo partly specified), the IC50 in assay [1] is 4 nM; in assay [2] it was 170 nM.

On to `Cc1cn(C)[n+](Cl)c1S(=O)(=O)N[C@@H](CNC(=O)C1=NOC(CCCCN=C(N)N)C1)C(=O)[O-]` (stereo partly specified), for which the IC50 in assay [1] amounted to 2 nM; in assay [2] it was 220 nM.

In the case of `CN(C)c1cccc2c1ccc[n+]2S(=O)(=O)N[C@@H](CNC(=O)C1=NOC(CCCCN=C(N)N)C1)C(=O)[O-]` (stereo partly specified), the IC50 in assay [1] came out at 7 nM; in assay [2] it was 7900 nM.

Take `CC(C)(C)c1ccc(S(=O)(=O)N[C@@H](CNC(=O)C2=NOC(CCCCNC(=N)N)C2)C(=O)O)cc1` (stereo partly specified): the IC50 in assay [1] came to 36 nM; in assay [2] it was 47000 nM.

Take `N=C(N)NCCCCC1CC(C(=O)NC[C@H](NS(=O)(=O)c2cccc3ccccc23)C(=O)O)=NO1` (stereo partly specified): the IC50 in assay [1] was found to be 16 nM; in assay [2] it was 3500 nM.

Take `N=C(N)NCCC1CC(C(=O)NC[C@H](NC(=O)OCc2ccccc2)C(=O)O)=NO1` (stereo partly specified): the IC50 in assay [1] worked out at 66 nM.

Consider `N=C(N)NCCCC1=NOC(CC(=O)NC[C@H](NC(=O)OCc2ccccc2)C(=O)O)C1` (stereo partly specified), for which the IC50 in assay [1] is 72 nM; in assay [2] it was 12000 nM.

As to `N=C(N)NCCCC1=NOC(C(=O)NC[C@H](NC(=O)OCc2ccccc2)C(=O)O)C1` (stereo partly specified), the figures for the half-maximal inhibitory concentration (IC50) in assay [1] and in assay [2] were 110 nM and above 100000 nM, respectively.

As for `N=C(N)NCCCCC1CC(C(=O)NC[C@H](NS(=O)(=O)c2ccc(-c3ccccn3)s2)C(=O)O)=NO1` (stereo partly specified), the figures for the IC50 in assay [1] and in assay [2] were 8 nM and 690 nM, respectively.

`N=C(N)NCCC1=NOC(CCC(=O)NC[C@H](NC(=O)OCc2ccccc2)C(=O)O)C1` (stereo partly specified): the half-inhibitory concentration (IC50) is 480 nM in assay [1] and 23000 nM in assay [2].

For the compound `N=C(N)NCCCCC1CC(C(=O)NC[C@H](NS(=O)(=O)c2ccc(Cl)cc2)C(=O)O)=NO1` (stereo partly specified), the IC50 in assay [1] was 12 nM; in assay [2], 2600 nM.

Regarding `N=C(N)NCCC1CC(CCC(=O)NC[C@H](NC(=O)OCc2ccccc2)C(=O)O)=NO1` (stereo partly specified), the IC50 in assay [1] was 87 nM; in assay [2] it was 17000 nM.
